{"source": "patent US8993282B2", "about": "“Carotenoid fermentation method” (JX Nippon Oil & Energy Corporation, priority 2008, dated 2015)", "test_system": "Paracoccus sp. strain K-185", "assay": "Glutamate supplementation, test tube culture (soybean meal medium), carotenoid by HPLC", "assay_type": "cell-based", "method": "In the examples, carotenoids were quantified by high performance liquid chromatography (HPLC) as follows.\nTwo columns of Wakosil-II 5 SIL-100 (φ4.6×250 mm) (Wako Pure Chemical Industries, Ltd., Japan) were connected to each other for use as a column. Elution was performed by flowing an n-hexane-tetrahydrofuran-methanol mixed solution (40:20:1), which was a mobile phase, at a flow rate of 1.0 mL/minute at a constant temperature around room temperature. The measurement was performed as follows. Samples were each dissolved in tetrahydrofuran and then diluted 100-fold with the mobile phase. Each dilution was injected in a volume of 20 μL. The column eluate was detected at a wavelength of 470 nm. As a reference for quantification, astaxanthin (SIGMA, Cat. No. A9335) was used. The astaxanthin concentration of the reference solution was determined using the following equation after measuring the absorbance (A) of the reference solution at 477 nm and the area percentage % (B) of the astaxanthin peak at the time of HPLC analysis under the above conditions.\nNext, a medium of the following composition (glucose 30 g/L, soybean meal 20 g/L, ammonium sulfate 1.5 g/L, potassium dihydrogenphosphate 1.5 g/L, disodium hydrogenphosphate 12-hydrate 3.8 g/L, calcium chloride dihydrate 5.0 g/L, magnesium sulfate 7-hydrate 0.7 g/L, iron sulfate 7-hydrate 0.6 g/L, ester-based defoaming agent 0.2 g/L) was dispensed in 8 ml volumes into cotton-plugged test tubes having an inner diameter of 18 mm (2 tubes in total). One of the test tubes was supplemented with monosodium L-glutamate monohydrate to 30 mmol/L, while the other was supplemented with nothing as a control.\nThe resulting culture solution was then inoculated in 0.1. ml volumes into the two test tube mediums and cultured with shaking at 28° C. for 3 days at 300 spm. Each culture solution was measured for its carotenoid concentration by HPLC.", "key": {"[1]": {"conditions": "Glutamic acid concentration 30 mmol/L, 28° C. for 3 days"}}}
{"smiles": "N[C@@H](CCC(=O)O)C(=O)O", "note": "[Glutamic acid, glutamic acid]", "values": [{"measurement": "produced carotenoid concentration compared to the sample without glutamic acid", "setting": "30 mmol/L", "value": "higher produced carotenoid concentration"}, {"measurement": "3-Hydroxyechinenone", "setting": "[1]", "value": 0.1, "unit": "mg/L"}, {"measurement": "Adonixanthin", "setting": "[1]", "value": 1.6, "unit": "mg/L"}, {"measurement": "Astaxanthin", "setting": "[1]", "value": 9.2, "unit": "mg/L"}, {"measurement": "Asteroidenone", "setting": "[1]", "value": 0.1, "unit": "mg/L"}, {"measurement": "Canthaxanthin", "setting": "[1]", "value": 1.3, "unit": "mg/L"}, {"measurement": "Echinenone", "setting": "[1]", "value": 0.6, "unit": "mg/L"}, {"measurement": "Phoenicoxanthin", "setting": "[1]", "value": 2.0, "unit": "mg/L"}, {"measurement": "Total carotenoid", "setting": "[1]", "value": 17.1, "unit": "mg/L"}, {"measurement": "Zeaxanthin", "setting": "[1]", "value": 0.03, "unit": "mg/L"}, {"measurement": "β-Carotene", "setting": "[1]", "value": 2.1, "unit": "mg/L"}, {"measurement": "β-Cryptoxanthin", "setting": "[1]", "value": 0.02, "unit": "mg/L"}]}
